Assay results taken from US11725011B2, “Bicyclic urea kinase inhibitors and uses thereof” (The Broad Institute, Inc., priority 2016, dated 2023).

What was measured:
[1] = target: SIK2 (Homo sapiens (Human), UniProt Q9H0K1); assay: Percent activity against SIK2 at 1 μM; format: biochemical
[2] = target: ABL1 (F317I)-nonphosphorylated (Homo sapiens (Human), UniProt P00519, F317I); assay: KINOMEscan; format: binding; details: 1 uM
[3] = target: ABL1 (H396P)-phosphorylated (Homo sapiens (Human), UniProt P00519, H396P); assay: KINOMEscan; format: binding; details: 1 uM
[4] = target: ABL1 (Q252H)-nonphosphorylated (Homo sapiens (Human), UniProt P00519, Q252H); assay: KINOMEscan; format: binding; details: 1 uM
[5] = target: ALK (Homo sapiens (Human), UniProt Q9UM73); assay: KINOMEscan; format: binding; details: 1 uM
[6] = target: ANKK1 (Homo sapiens (Human), UniProt Q8NFD2); assay: KINOMEscan; format: binding; details: 1 uM
[7] = target: BTK (Homo sapiens (Human), UniProt Q06187); assay: KINOMEscan; format: binding; details: 1 uM
[8] = target: CAMK4 (Homo sapiens (Human), UniProt Q16566); assay: KINOMEscan; format: binding; details: 1 uM
[9] = target: CDC2L2 (Homo sapiens (Human), UniProt Q9UQ88); assay: KINOMEscan; format: binding; details: 1 uM
[10] = target: CDK3 (Homo sapiens (Human), UniProt Q00526); assay: KINOMEscan; format: binding; details: 1 uM
[11] = target: CDKL1 (Homo sapiens (Human), UniProt Q00532); assay: KINOMEscan; format: binding; details: 1 uM
[12] = target: CSNK1E (Homo sapiens (Human), UniProt P49674); assay: KINOMEscan; format: binding; details: 1 uM
[13] = target: DDR2 (Homo sapiens (Human), UniProt Q16832); assay: KINOMEscan; format: binding; details: 1 uM
[14] = target: EPHB1 (Homo sapiens (Human), UniProt P54762); assay: KINOMEscan; format: binding; details: 1 uM
[15] = target: ERK8 (Homo sapiens (Human), UniProt Q8TD08); assay: KINOMEscan; format: binding; details: 1 uM
[16] = target: ICK (Homo sapiens (Human), UniProt Q9UPZ9); assay: KINOMEscan; format: binding; details: 1 uM
Sequence of ICK (Q9UPZ9 whole entry): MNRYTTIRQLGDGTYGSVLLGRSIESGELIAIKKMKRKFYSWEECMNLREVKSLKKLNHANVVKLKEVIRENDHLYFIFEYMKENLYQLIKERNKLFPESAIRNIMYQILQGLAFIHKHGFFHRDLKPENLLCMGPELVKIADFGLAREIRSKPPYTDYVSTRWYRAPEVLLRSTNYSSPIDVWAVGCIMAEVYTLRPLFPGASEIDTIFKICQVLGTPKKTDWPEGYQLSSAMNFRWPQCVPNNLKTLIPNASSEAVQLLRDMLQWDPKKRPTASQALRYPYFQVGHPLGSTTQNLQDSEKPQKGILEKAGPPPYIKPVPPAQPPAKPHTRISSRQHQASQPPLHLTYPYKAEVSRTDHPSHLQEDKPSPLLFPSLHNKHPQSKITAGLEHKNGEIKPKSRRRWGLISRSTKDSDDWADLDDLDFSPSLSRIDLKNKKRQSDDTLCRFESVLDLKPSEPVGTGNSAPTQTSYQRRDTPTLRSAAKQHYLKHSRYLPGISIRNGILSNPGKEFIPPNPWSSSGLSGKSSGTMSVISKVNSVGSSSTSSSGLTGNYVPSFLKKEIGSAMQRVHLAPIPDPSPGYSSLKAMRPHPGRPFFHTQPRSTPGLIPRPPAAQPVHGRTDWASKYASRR

[17] = target: IRAK4 (Homo sapiens (Human), UniProt Q9NWZ3); assay: KINOMEscan; format: binding; details: 1 uM
[18] = target: KIT (V559D, T670I) (Homo sapiens (Human), UniProt P10721, T670I/V559D); assay: KINOMEscan; format: binding; details: 1 uM
[19] = target: LATS1 (Homo sapiens (Human), UniProt O95835); assay: KINOMEscan; format: binding; details: 1 uM
[20] = target: LYN (Homo sapiens (Human), UniProt P07948); assay: KINOMEscan; format: binding; details: 1 uM
[21] = target: MAP4K4 (Homo sapiens (Human), UniProt O95819); assay: KINOMEscan; format: binding; details: 1 uM
[22] = target: MAP4K5 (Homo sapiens (Human), UniProt Q9Y4K4); assay: KINOMEscan; format: binding; details: 1 uM
[23] = target: MAPKAPK2 (Homo sapiens (Human), UniProt P49137); assay: KINOMEscan; format: binding; details: 1 uM
Sequence of MAPKAPK2 (P49137 whole entry, looked up): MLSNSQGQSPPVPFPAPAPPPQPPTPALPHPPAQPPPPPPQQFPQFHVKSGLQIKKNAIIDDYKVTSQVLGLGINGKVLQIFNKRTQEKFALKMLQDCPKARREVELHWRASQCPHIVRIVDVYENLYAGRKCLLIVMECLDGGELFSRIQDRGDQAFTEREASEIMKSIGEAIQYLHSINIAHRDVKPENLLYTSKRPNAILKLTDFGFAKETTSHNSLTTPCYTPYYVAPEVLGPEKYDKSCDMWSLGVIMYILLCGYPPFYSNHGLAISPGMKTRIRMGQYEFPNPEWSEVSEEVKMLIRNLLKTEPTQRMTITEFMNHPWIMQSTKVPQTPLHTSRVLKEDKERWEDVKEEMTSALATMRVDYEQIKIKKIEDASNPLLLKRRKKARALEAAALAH

[24] = target: MARK2 (Homo sapiens (Human), UniProt Q7KZI7); assay: KINOMEscan; format: binding; details: 1 uM
Sequence of MARK2 (Q7KZI7 whole entry): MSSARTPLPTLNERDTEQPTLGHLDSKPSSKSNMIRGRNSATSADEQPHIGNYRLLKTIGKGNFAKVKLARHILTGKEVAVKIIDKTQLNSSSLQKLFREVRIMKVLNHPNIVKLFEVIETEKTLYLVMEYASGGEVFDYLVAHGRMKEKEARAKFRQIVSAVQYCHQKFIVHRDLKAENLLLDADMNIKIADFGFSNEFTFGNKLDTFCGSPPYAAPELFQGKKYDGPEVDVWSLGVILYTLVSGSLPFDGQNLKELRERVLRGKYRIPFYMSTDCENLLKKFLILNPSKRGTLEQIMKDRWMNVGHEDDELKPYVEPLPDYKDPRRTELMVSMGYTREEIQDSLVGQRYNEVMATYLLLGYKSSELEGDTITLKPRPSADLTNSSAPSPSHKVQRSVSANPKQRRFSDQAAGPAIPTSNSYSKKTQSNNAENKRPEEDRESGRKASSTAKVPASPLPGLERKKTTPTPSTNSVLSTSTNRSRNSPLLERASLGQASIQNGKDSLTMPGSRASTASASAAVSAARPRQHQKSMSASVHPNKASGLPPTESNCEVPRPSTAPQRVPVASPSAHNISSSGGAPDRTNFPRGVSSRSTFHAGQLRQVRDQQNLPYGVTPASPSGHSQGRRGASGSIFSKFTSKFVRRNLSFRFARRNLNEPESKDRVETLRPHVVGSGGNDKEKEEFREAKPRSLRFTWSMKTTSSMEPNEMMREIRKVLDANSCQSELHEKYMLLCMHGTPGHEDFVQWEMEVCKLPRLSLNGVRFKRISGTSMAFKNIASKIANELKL

[25] = target: MELK (Homo sapiens (Human), UniProt Q14680); assay: KINOMEscan; format: binding; details: 1 uM
[26] = target: MERTK (Homo sapiens (Human), UniProt Q12866); assay: KINOMEscan; format: binding; details: 1 uM
[27] = target: MKNK2 (Homo sapiens (Human), UniProt Q9HBH9); assay: KINOMEscan; format: binding; details: 1 uM
Sequence of MKNK2 (Q9HBH9 whole entry): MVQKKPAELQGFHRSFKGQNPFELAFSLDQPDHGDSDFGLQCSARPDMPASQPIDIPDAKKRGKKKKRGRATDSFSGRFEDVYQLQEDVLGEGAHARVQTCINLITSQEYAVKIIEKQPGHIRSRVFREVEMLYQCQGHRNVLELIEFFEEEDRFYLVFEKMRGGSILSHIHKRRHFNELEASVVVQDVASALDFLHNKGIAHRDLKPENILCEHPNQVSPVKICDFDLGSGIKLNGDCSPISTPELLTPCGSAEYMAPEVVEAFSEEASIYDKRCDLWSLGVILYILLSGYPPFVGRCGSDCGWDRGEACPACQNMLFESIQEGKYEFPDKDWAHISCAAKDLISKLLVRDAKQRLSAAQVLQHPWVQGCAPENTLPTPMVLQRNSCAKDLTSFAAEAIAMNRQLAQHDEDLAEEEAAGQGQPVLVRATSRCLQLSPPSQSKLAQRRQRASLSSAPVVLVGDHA

[28] = target: NEK10 (Homo sapiens (Human), UniProt Q6ZWH5); assay: KINOMEscan; format: binding; details: 1 uM
[29] = target: PAK7 (Homo sapiens (Human), UniProt Q9P286); assay: KINOMEscan; format: binding; details: 1 uM
[30] = target: PFCDPK1 (P. falciparum) (Plasmodium falciparum (isolate 3D7), UniProt P62344); assay: KINOMEscan; format: binding; details: 1 uM
[31] = target: PIK3CD (Homo sapiens (Human), UniProt O00329); assay: KINOMEscan; format: binding; details: 1 uM
[32] = target: PIM2 (Homo sapiens (Human), UniProt Q9P1W9); assay: KINOMEscan; format: binding; details: 1 uM
[33] = target: PRKX (Homo sapiens (Human), UniProt P51817); assay: KINOMEscan; format: binding; details: 1 uM
[34] = target: PYK2 (Homo sapiens (Human), UniProt Q14289); assay: KINOMEscan; format: binding; details: 1 uM
[35] = target: SGK (Homo sapiens (Human), UniProt O00141); assay: KINOMEscan; format: binding; details: 1 uM
[36] = target: SRMS (Homo sapiens (Human), UniProt Q9H3Y6); assay: KINOMEscan; format: binding; details: 1 uM
[37] = target: STK39 (Homo sapiens (Human), UniProt Q9UEW8); assay: KINOMEscan; format: binding; details: 1 uM
[38] = target: TESK1 (Homo sapiens (Human), UniProt Q15569); assay: KINOMEscan; format: binding; details: 1 uM
Sequence of TESK1 (Q15569 whole entry): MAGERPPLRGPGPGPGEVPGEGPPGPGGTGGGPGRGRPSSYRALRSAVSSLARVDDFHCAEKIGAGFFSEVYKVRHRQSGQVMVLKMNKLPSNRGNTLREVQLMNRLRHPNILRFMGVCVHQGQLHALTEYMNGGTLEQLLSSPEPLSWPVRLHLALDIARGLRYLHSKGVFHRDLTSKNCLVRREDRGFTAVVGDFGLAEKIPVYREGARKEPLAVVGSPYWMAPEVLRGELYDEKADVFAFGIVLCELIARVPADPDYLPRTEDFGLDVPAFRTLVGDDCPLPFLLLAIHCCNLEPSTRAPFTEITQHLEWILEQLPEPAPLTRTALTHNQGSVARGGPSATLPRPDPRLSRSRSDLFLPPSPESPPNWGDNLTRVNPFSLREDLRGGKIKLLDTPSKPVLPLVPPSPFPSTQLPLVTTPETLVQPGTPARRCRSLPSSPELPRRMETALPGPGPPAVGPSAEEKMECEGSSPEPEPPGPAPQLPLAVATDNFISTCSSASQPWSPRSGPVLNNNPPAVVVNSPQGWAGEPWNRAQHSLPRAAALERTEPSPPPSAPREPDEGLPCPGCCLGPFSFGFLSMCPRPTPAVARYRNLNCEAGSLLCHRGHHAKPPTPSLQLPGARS

[39] = target: TLK2 (Homo sapiens (Human), UniProt Q86UE8); assay: KINOMEscan; format: binding; details: 1 uM
[40] = target: ULK1 (Homo sapiens (Human), UniProt O75385); assay: KINOMEscan; format: binding; details: 1 uM
Sequence of ULK1 (O75385 whole entry): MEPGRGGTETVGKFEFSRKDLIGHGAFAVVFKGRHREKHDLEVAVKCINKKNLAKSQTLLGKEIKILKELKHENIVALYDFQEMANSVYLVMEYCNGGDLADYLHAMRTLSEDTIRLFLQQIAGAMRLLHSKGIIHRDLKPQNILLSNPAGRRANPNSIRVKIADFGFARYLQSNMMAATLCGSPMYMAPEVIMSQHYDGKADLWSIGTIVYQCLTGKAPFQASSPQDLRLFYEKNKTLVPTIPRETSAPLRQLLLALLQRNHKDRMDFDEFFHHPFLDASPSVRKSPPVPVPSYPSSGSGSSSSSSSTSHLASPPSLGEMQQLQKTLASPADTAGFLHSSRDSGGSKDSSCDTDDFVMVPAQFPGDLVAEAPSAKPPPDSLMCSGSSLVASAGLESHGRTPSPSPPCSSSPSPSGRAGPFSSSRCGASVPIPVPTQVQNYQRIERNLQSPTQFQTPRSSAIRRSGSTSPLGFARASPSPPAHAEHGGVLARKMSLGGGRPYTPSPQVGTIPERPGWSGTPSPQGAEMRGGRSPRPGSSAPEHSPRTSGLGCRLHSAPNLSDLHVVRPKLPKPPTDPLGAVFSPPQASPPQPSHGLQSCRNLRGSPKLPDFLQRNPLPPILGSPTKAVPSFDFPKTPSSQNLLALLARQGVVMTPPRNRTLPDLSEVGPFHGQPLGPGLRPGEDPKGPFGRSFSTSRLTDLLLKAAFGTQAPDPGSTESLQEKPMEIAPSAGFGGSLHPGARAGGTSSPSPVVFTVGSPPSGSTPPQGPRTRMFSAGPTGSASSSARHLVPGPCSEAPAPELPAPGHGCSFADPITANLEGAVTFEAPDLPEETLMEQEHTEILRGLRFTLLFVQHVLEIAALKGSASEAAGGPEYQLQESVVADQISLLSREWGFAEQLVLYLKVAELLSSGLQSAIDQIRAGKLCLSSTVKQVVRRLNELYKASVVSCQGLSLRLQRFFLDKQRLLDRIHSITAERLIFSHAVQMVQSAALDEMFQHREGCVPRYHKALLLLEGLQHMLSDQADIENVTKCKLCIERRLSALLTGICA

[41] = target: WNK1 (Homo sapiens (Human), UniProt Q9H4A3); assay: KINOMEscan; format: binding; details: 1 uM

Sequence of SIK2 (Q9H0K1 whole entry): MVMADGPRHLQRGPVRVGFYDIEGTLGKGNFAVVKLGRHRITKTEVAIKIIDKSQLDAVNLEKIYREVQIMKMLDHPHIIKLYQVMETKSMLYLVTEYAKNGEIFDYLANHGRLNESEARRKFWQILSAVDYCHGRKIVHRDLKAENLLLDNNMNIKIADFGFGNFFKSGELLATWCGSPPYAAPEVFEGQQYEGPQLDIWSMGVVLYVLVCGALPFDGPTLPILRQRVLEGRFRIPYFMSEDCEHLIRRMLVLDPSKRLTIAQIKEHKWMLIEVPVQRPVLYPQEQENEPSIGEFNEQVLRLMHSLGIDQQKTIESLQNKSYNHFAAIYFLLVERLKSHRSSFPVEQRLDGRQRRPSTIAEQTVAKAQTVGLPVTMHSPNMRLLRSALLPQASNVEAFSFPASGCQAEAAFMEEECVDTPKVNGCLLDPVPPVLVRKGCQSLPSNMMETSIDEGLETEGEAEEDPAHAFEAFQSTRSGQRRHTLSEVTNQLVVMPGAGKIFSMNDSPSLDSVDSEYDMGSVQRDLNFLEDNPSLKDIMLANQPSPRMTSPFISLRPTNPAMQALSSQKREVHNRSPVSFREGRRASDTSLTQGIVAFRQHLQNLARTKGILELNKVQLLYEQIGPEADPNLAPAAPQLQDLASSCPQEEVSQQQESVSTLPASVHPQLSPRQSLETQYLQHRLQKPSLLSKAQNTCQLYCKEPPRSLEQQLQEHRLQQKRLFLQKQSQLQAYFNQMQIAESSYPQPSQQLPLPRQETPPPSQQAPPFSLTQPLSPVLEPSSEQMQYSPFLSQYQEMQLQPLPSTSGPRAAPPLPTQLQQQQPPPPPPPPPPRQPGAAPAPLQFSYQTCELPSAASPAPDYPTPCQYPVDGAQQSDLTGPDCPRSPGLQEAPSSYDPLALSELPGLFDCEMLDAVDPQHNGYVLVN

SMILES: COc1ccc(N2C(=O)N(c3c(C)cccc3C)Cc3cnc(Nc4ccc(N5CCN(C)CC5)cc4)nc32)c(OC)c1 [HG-11-136-01]
- Enzyme activity at 1 μM (%) SIK2 ([1]; 1 μM): 2.8%
- SIK2 % ACTIVITY ([1]; compound at 1 μM, approximate Km for ATP): 2.8%
- KINOMEscan ABL1 (F317I)-nonphosphorylated [2]: 0
- KINOMEscan ABL1 (H396P)-phosphorylated [3]: 0
- KINOMEscan ABL1 (Q252H)-nonphosphorylated [4]: 0
- KINOMEscan ALK [5]: 1.6
- KINOMEscan ANKK1 [6]: 68
- KINOMEscan BTK [7]: 0.05
- KINOMEscan CAMK4 [8]: 100
- KINOMEscan CDC2L2 [9]: 83
- KINOMEscan CDK3 [10]: 100
- KINOMEscan CDKL1 [11]: 84
- KINOMEscan CSNK1E [12]: 59
- KINOMEscan DDR2 [13]: 1.6
- KINOMEscan EPHB1 [14]: 0.3
- KINOMEscan ERK8 [15]: 88
- KINOMEscan ICK [16]: 61
- KINOMEscan IRAK4 [17]: 49
- KINOMEscan KIT (V559D, T670I) [18]: 55
- KINOMEscan LATS1 [19]: 100
- KINOMEscan LYN [20]: 0
- KINOMEscan MAP4K4 [21]: 17
- KINOMEscan MAP4K5 [22]: 0.3
- KINOMEscan MAPKAPK2 [23]: 100
- KINOMEscan MARK2 [24]: 3.7
- KINOMEscan MELK [25]: 36
- KINOMEscan MERTK [26]: 5.6
- KINOMEscan MKNK2 [27]: 99
- KINOMEscan NEK10 [28]: 9.6
- KINOMEscan PAK7 [29]: 1.3
- KINOMEscan PFCDPK1 (P. falciparum) [30]: 0.1
- KINOMEscan PIK3CD [31]: 72
- KINOMEscan PIM2 [32]: 100
- KINOMEscan PRKX [33]: 100
- KINOMEscan PYK2 [34]: 15
- KINOMEscan SGK [35]: 63
- KINOMEscan SRMS [36]: 0
- KINOMEscan STK39 [37]: 28
- KINOMEscan TESK1 [38]: 0
- KINOMEscan TLK2 [39]: 92
- KINOMEscan ULK1 [40]: 3.2
- KINOMEscan WNK1 [41]: 89
